In patent publication EP4417607A1, “HETEROCYCLIC COMPOUND AS SOS1 INHIBITOR AND USES THEREOF” (Nanjing Zaiming Pharmaceutical Co., Ltd., priority 2021, dated 2023) one finds IC50 data, which are given here for 17 molecules.

Broadly, the IC50 is the concentration that inhibits the measured activity by half.

SMILES strings stand for the structures.

The subject of one assay is H358 cells. Briefly: H358 cell proliferation inhibition (CellTiter-Glo luminescent cell viability assay). It counts as cell-based. The note with it: Homo sapiens, NCI-H358, 168 h, 7 days. The method, then: The effect of the compounds of the present invention on H358 cell proliferation was assessed by CellTiter-Glo luminescent cell viability assay kit method.
H358 cells (ATCC, CRL-5807) were cultured in RPMI1640 (Hyclone, SH30256.01) complete medium containing 10% FBS (Gibco, 10100147) and 100 U/mL penicillin-streptomycin mixed solution (Gibco, 15140163). When the cells grew to 80-90%, the cells were digested, pipetted, and seeded in a 96-well plate (Corning, 4515) at 3000 cells/well (180 µL RPMI1640 complete medium), and then the 96-well plate was incubated overnight in an incubator at 37 °C with 5% CO2.
After incubation overnight, 20 µL of a diluted test compound was added to each well using a multi-channel pipette, and the 96-well plate was placed in an incubator at 37 °C with 5% CO2 for further culture. After 7 days, 100 µL of the supernatant was pipetted and discarded. 50 µL of CellTiter-Glo® 3D Cell Viability Assay liquid was added to each well. The plate was shaken at room temperature at 450 rpm for 30 min. After the cells were completely lysed, "Luminescence" on the microplate reader was selected for plate reading. In this experiment, the cell-free group (replaced with 1640 medium) was used as the 100% inhibition group, and the compound-free group in which the cell was added was used as the 0% inhibition group.
The inhibition percentage of H358 cell proliferation by the compounds of the present invention could be calculated by the following formula: [formula]
IC50 values of the compounds were calculated from 8 concentration points using XLfit (ID Business Solutions Ltd., UK) software by the following formula: Y = Bottom + (Top−Bottom)/(1+10^(∧)((logIC50−X)×slopefactor)) [formula]
Y is the inhibition percentage, X is the logarithmic value of the concentration of the test compound, Bottom is the minimum inhibition percentage, Top is the maximum inhibition percentage, and slope factor is the slope coefficient of the curve.

Assay [1] has as its system p-ERK pathway in H358 cells. Briefly: p-ERK pathway inhibition in H358 cells (Advanced phospho-ERK (Thr202/Tyr204) cellular kit, HTRF). In kind it is cell-based. The note with it: Homo sapiens, NCI-H358, 1 h compound incubation. The method in brief: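 Serum-starved H358 cells (50000/well, overnight) treated with compound for 1 h at 37 °C, then lysed; phospho-ERK (Thr202/Tyr204) read by HTRF (665/620 nm ratio). Cell-free wells set 100% inhibition, untreated cells 0%; IC50 fitted from 8 concentrations by four-parameter curve.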
A general note: TR-FRET usually uses a lanthanide donor and a delayed reading to cut background.

For the molecule `COc1c(=O)n(C2(CC#N)CC2)cc2c(N[C@H](C)c3cccc(C(F)F)c3F)nc(C)nc12` [Example 32, (R)-2-(1-(4-((1-(3-(difluoromethyl)-2-fluorophenyl)ethyl)amino)-8-methoxy-2-methyl-7-oxopyrido[4,3-d]pyrimidine-6(7H)-yl)cyclopropyl)acetonitrile], the figures for the IC50 (with H358 cells; in assay [1]) were 0.135 µM and 0.0489 µM, respectively.
Take `Cc1nc(N[C@H](C)c2cccc(C(F)F)c2F)c2cn(C3(CF)CC3)c(=O)c(OC(C)C)c2n1` [Example 36, (R)-4-((1-(3-(difluoromethyl)-2-fluorophenyl)ethyl)amino)-6-(1-(fluoromethyl)cyclopropyl)-8-isopropoxy-2-methylpyrido[4,3-d]pyrimidine-7(6H)-one]: the IC50 in the assay with H358 cells came out at 0.0648 µM; in assay [1], 0.0691 µM.
In the same order, the values of `Cc1nc(N[C@H](C)c2cccc(C(F)F)c2F)c2cn(C3(CF)CC3)c(=O)c(N3CCN(C)CC3)c2n1` [Example 38, (R)-4-((1-(3-(difluoromethyl)-2-fluorophenyl)ethyl)amino)-6-(1-(fluoromethyl)cyclopropyl)-2-methyl-8-(4-methylpiperazin-1-yl)pyrido[4,3-d]pyrimidine-7(6H)-one] are 0.0117 µM and 0.1 µM.
As for `Cc1nc(N[C@H](C)c2cccc(C(F)F)c2F)c2cn(C3(CF)CC3)c(=O)c(N3CCOC[C@H]3C)c2n1` [Example 39, 4-(((R)-1-(3-(difluoromethyl)-2-fluorophenyl)ethyl)amino)-6-(1-(fluoromethyl)cyclopropyl)-2-methyl-8-((R)-3-methylmorpholine)pyrido[4,3-d]pyrimidine-7(6H)-one], the half-maximal inhibitory concentration (IC50) in the assay with H358 cells worked out at 0.0327 µM; in assay [1], 0.0387 µM.
For the molecule `Cc1nc(N[C@H](C)c2cccc(C(F)F)c2F)c2cn(C3(CF)CC3)c(=O)c(N3C[C@@H](C)O[C@@H](C)C3)c2n1` [Example 41, 4-(((R)-1-(3-(difluoromethyl)-2-fluorophenyl)ethyl)amino)-8-((2S,6R)-2,6-dimethylmorpholino)-6-(1-(fluoromethyl)cyclopropyl)-2-methylpyrido[4,3-d]pyrimidine-7(6H)-one], the concentration for half-maximal inhibition (IC50) came out at 0.052 µM in the assay with H358 cells and 0.117 µM in assay [1].
Turning to `Cc1nc(N[C@H](C)c2cccc(C(F)F)c2F)c2cn(C3(CF)CC3)c(=O)c(N3CCO[C@H](C)C3)c2n1` [Example 42, 4-(((R)-1-(3-(difluoromethyl)-2-fluorophenyl)ethyl)amino)-6-(1-(fluoromethyl)cyclopropyl)-2-methyl-8-((R)-2-methylmorpholine)pyrido[4,3-d]pyrimidine-7(6H)-one], the concentration for half-maximal inhibition (IC50) in the assay with H358 cells worked out at 0.0505 µM; in assay [1], 0.0418 µM.
For `Cc1nc(N[C@H](C)c2cccc(C(F)F)c2F)c2cn(C3(CF)CC3)c(=O)c(N3CCO[C@@H](C)C3)c2n1` [Example 43, 4-(((R)-1-(3-(difluoromethyl)-2-fluorophenyl)ethyl)amino)-6-(1-(fluoromethyl)cyclopropyl)-2-methyl-8-((S)-2-methylmorpholine)pyrido[4,3-d]pyrimidine-7(6H)-one], in that order: 0.0508 µM and 0.0492 µM.
As for `Cc1nc(N[C@H](C)c2cccc(C(F)F)c2F)c2cn(C3(CF)CC3)c(=O)c(N3CCC(C)(O)CC3)c2n1` [Example 45, (R)-4-((1-(3-(difluoromethyl)-2-fluorophenyl)ethyl)amino)-6-(1-(fluoromethyl)cyclopropyl)-8-(4-hydroxy-4-methylpiperidin-1-yl)-2-methylpyrido[4,3-d]pyrimidine-7(6H)-one], the results for the half-maximal inhibitory concentration (IC50) (in the assay on H358 cells; in assay [1]) were 0.0314 µM and 0.0189 µM, respectively.
In the same order, the values of `Cc1nc(N[C@H](C)c2cccc(S(F)(F)(F)(F)F)c2)c2cn(C3(CF)CC3)c(=O)c(N3CCOCC3)c2n1` [Example 46, (R)-6-(1-(fluoromethyl)cyclopropyl)-2-methyl-8-morpholino-4-((1-(3-(pentafluoro-λ^6-sulfanyl)phenyl)ethyl)amino)pyrido[4,3-d]pyrimidine-7(6H)-one] are 0.0748 µM and 0.112 µM.
`Cc1nc(N[C@H](C)c2cccc(C#N)c2C)c2cn(C3(CF)CC3)c(=O)c(N3CCOCC3)c2n1` [Example 47]: the values for the IC50 (in the assay on H358 cells; in assay [1]) were 0.0237 µM and 0.0375 µM, respectively.
In the same order, the values of `[2H]C([2H])([2H])Oc1c(=O)n(N2CCOCC2)cc2c(N[C@H](C)c3cccc(C(F)F)c3F)nc(C)nc12` [Example 48, (R)-4-((1-(3-(difluoromethyl)-2-fluorophenyl)ethyl)amino)-8-(methoxy-d3)-2-methyl-6-morpholinepyrido[4,3-d]pyrimidine-7(6H)-one] are 0.0472 µM and 0.114 µM.
For `CC(=O)N1CCN(c2c(=O)n(C3(CF)CC3)cc3c(N[C@H](C)c4cccc(C(F)F)c4F)nc(C)nc23)CC1` [Example 49], in that order: 0.0101 µM and 0.0626 µM.
As for `Cc1nc(N[C@H](C)c2cccc(C(F)F)c2F)c2cn(C3(CF)CC3)c(=O)c(N3CCOCC3(C)C)c2n1` [Example 52, (R)-4-((1-(3-(difluoromethyl)-2-fluorophenyl)ethyl)amino)-8-(3,3-dimethylmorpholine) -6-(1-(fluoromethyl)cyclopropyl)-2-methylpyrido[4,3-d]pyrimidine-7(6H)-one], the IC50 came out at 0.0265 µM in the assay on H358 cells and 0.0414 µM in assay [1].
Consider `Cc1nc(N[C@H](C)c2cccc(C(F)(F)F)c2C)c2cn(C3(CF)CC3)c(=O)c(N3CCOC[C@@H]3C)c2n1` [Example 56, 6-(1-(fluoromethyl)cyclopropyl)-2-methyl-4-(((R)-1-(2-methyl-3-(trifluoromethyl)phenyl)ethyl)amino)-8-((S)-3-methylmorpholine)pyrido[4,3-d]pyrimidine-7(6H)-one], for which the IC50 with H358 cells turned out to be 0.0174 µM; in assay [1], 0.0424 µM.
On to `Cc1nc(N[C@H](C)c2cccc(C(F)F)c2F)c2cn(C3(CF)CC3)c(=O)c(N3CCOC[C@@H]3C(C)C)c2n1` [Example 57, 4-(((R)-1-(3-(difluoromethyl)-2-fluorophenyl)ethyl)amino)-6-(1-(fluoromethyl)cyclopropyl)-8-((S)-3-isopropylmorpholino)-2-methylpyrido[4,3-d]pyrimidine-7(6H)-one], for which the results for the IC50 (in the assay on H358 cells; in assay [1]) were 0.0731 µM and 0.0675 µM, respectively.
For the molecule `CC[C@H]1COCCN1c1c(=O)n(C2(CF)CC2)cc2c(N[C@H](C)c3cccc(C(F)F)c3F)nc(C)nc12` [Example 58, 4-(((R)-1-(3-(difluoromethyl)-2-fluorophenyl)ethyl)amino)-8-((S)-3-ethylmorpholino)-6-(1-(fluoromethyl)cyclopropyl)-2-methylpyrido[4,3-d]pyrimidine-7(6H)-one], the results for the IC50 (in the assay with H358 cells; in assay [1]) were 0.0579 µM and 0.112 µM, respectively.
In the case of `Cc1nc(N[C@H](C)c2cccc(C(F)F)c2F)c2cn(C3(CF)CC3)c(=O)c(NC3COC3)c2n1` [Example 61, (R)-4-((1-(3-(difluoromethyl)-2-fluorophenyl)ethyl)amino)-6-(1-(fluoromethyl)cyclopropyl)-2-methyl-8-(oxetan-3-ylamino)pyrido[4,3-d]pyrimidine-7(6H)-one], the results for the IC50 (in the assay on H358 cells; in assay [1]) were 0.0228 µM and 0.0164 µM, respectively.
